Results reported in patent US20260271927A1, “PESTICIDALLY ACTIVE BICYCLIC COMPOUNDS” (SYNGENTA CROP PROTECTION AG, priority 2023, published 2026).

Experiments:
Assay type in all cases: in vivo
[1] = tested on: Diabrotica balteata (Corn Root Worm); assay: Diabrotica balteata (corn root worm), sprayed maize sprouts, L2 larvae; conditions: 96 h, application rate of 200 ppm, 4 days after infestation, read-out: control in at least one of the two categories (mortality or growth inhibition)
Protocol: Maize sprouts placed onto an agar layer in 24-well microtiter plates were treated with aqueous test solutions prepared from 10′000 ppm DMSO stock solutions by spraying. After drying, the plates were infested with L2 larvae (6 to 10 per well). The samples were assessed for mortality and growth inhibition in comparison to untreated samples 4 days after infestation.

[2] = tested on: Tetranychus urticae (Two-Spotted Spider Mite); assay: Tetranychus urticae feeding/contact activity, bean leaf discs; conditions: foliar, 192 h
Protocol: Bean leaf discs on agar in 24-well microtiter plates were sprayed with aqueous test solutions prepared from 10′000 ppm DMSO stock solutions. After drying the leaf discs were infested with a mite population of mixed ages. The samples were assessed for mortality on mixed population (mobile stages) 8 days after infestation.

[3] = tested on: Spodoptera littoralis (Egyptian Cotton Leaf Worm); assay: Spodoptera littoralis (Egyptian cotton leaf worm), cotton leaf discs, L1 larvae; conditions: foliar, 72 h, application rate of 200 ppm, 3 days after infestation, read-out: control in at least one of the three categories (mortality, anti-feedant effect, or growth inhibition)
Protocol: Cotton leaf discs were placed onto agar in 24-well microtiter plates and sprayed with aqueous test solutions prepared from 10′000 ppm DMSO stock solutions. After drying the leaf discs were infested with five L1 larvae. The samples were assessed for mortality, anti-feeding effect, and growth inhibition in comparison to untreated samples 3 days after infestation. Control of Spodoptera littoralis by a test sample is given when at least one of the categories mortality, anti-feedant effect, and growth inhibition is higher than the untreated sample.

[4] = tested on: Chilo suppressalis (Striped Rice Stemborer); assay: Chilo suppressalis (striped rice stemborer), artificial diet in 24-well plates, L2 larvae; conditions: 144 h, application rate of 200 ppm, 6 days after infestation, read-out: control in at least one of the three categories (mortality, anti-feedant effect, or growth inhibition)
Protocol: 24-well microtiter plates with artificial diet were treated with aqueous test solutions prepared from 10′000 ppm DMSO stock solutions by pipetting. After drying, the plates were infested with L2 larvae (6-8 per well). The samples were assessed for mortality, anti-feeding effect, and growth inhibition in comparison to untreated samples 6 days after infestation. Control of Chilo suppressalis by a test sample is given when at least one of the categories mortality, anti-feedant effect, and growth inhibition is higher than the untreated sample.

[5] = tested on: Myzus persicae (Green Peach Aphid); assay: Myzus persicae feeding/contact activity, sunflower leaf discs; conditions: foliar, 144 h, application rate of 200 ppm, 6 days after infestation
Protocol: (§1) Sunflower leaf discs were placed onto agar in a 24-well microtiter plate and sprayed with aqueous test solutions prepared from 10′000 ppm DMSO stock solutions. After drying, the leaf discs were infested with an aphid population of mixed ages. The samples were assessed for mortality 6 days after infestation.

[6] = tested on: Myzus persicae (Green Peach Aphid); assay: Myzus persicae intrinsic activity, sucrose solution under Parafilm; conditions: 120 h, application rate of 12.5 ppm, 5 days after infestation, read-out: control (assessed for mortality)
Protocol: Test compounds prepared from 10′000 ppm DMSO stock solutions were applied by pipette into 24-well microtiter plates and mixed with sucrose solution. The plates were closed with a stretched Parafilm. A plastic stencil with 24 holes was placed onto the plate and infested pea seedlings were placed directly on the Parafilm. The infested plate was closed with a gel blotting paper and another plastic stencil and then turned upside down. The samples were assessed for mortality 5 days after infestation.

[7] = tested on: Myzus persicae (Green Peach Aphid); assay: Myzus persicae systemic activity, roots of pea seedlings in test solution; conditions: 144 h, test rate of 24 ppm, 6 days after placing seedlings into test solutions
Protocol: Roots of pea seedlings infested with an aphid population of mixed ages were placed directly into aqueous test solutions prepared from 10′000 DMSO stock solutions. The samples were assessed for mortality 6 days after placing seedlings into test solutions.

[8] = tested on: Myzus persicae (Green Peach Aphid); assay: Myzus persicae feeding/contact activity, eggplant leaf discs; conditions: foliar, 144 h, application rate of 200 ppm, 6 days after infestation, read-out: growth inhibition
Protocol: as §1, with “Eggplant” for “Sunflower”

[9] = tested on: Bemisia tabaci (Cotton White Fly); assay: Bemisia tabaci feeding/contact activity, cotton leaf discs, adult white flies; conditions: foliar, 144 h, application rate of 200 ppm, 6 days after incubation
Protocol: Cotton leaf discs were placed on agar in 24-well microtiter plates and sprayed with aqueous test solutions prepared from 10′000 ppm DMSO stock solutions. After drying the leaf discs were infested with adult white flies. The samples were checked for mortality 6 days after incubation.

[10] = tested on: Plutella xylostella (Diamond Back Moth); assay: Plutella xylostella (diamond back moth), artificial diet, eggs; conditions: 192 h, application rate of 200 ppm, 8 days after infestation, read-out: effect in at least one of the two categories (mortality or growth inhibition)
Protocol: 24-well microtiter plates with artificial diet were treated with aqueous test solutions prepared from 10′000 ppm DMSO stock solutions by pipetting. After drying, Plutella eggs were pipetted through a plastic stencil onto a gel blotting paper and the plate was closed with it. The samples were assessed for mortality and growth inhibition in comparison to untreated samples 8 days after infestation.

NC(=O)[C@H]1[C@@H]2CCCO[C@@H]21 (relative stereo) [Compound P1, rel-(1R,6R,7R)-2-oxabicyclo[4.1.0]heptane-7-carboxamide]
percent control (mortality or growth inhibition) at 200 ppm [1]: ≥ 80%
mortality at 200 ppm [2]: ≥ 80%

O=C(Nc1cccn(-c2ccccc2)c1=O)[C@H]1[C@@H]2CCCO[C@@H]21 (relative stereo) [Compound P4, rel-(1S,6S,7S)-N-(2-oxo-1-phenyl-3-pyridyl)-2-oxabicyclo[4.1.0]heptane-7-carboxamide]
percent control (mortality, anti-feedant effect or growth inhibition) at 200 ppm [3]: ≥ 80%

NC(=O)[C@H]1[C@@H]2OCCO[C@@H]21 [Compound P5, (1α,6α,7α)-2,5-dioxabicyclo[4.1.0]heptane-7-carboxamide]
percent control (mortality, anti-feedant effect or growth inhibition) at 200 ppm [4]: ≥ 80%
percent control (mortality or growth inhibition) at 200 ppm [1]: ≥ 80%
mortality at 200 ppm [5]: ≥ 80%
mortality at 12.5 ppm [6]: ≥ 80%
mortality at 24 ppm [7]: ≥ 80%
mortality at 200 ppm [8]: ≥ 80%

CNC(=O)c1ccccc1NC(=O)[C@H]1[C@@H]2OCCO[C@@H]21 [Compound P6]
mortality at 12.5 ppm [6]: ≥ 80%
mortality at 24 ppm [7]: ≥ 80%

O=C(O)[C@H]1[C@@H]2OCCO[C@@H]21 [Compound P7, (1α,6α,7α)-2,5-dioxabicyclo[4.1.0]heptane-7-carboxylic acid]
percent control (mortality, anti-feedant effect or growth inhibition) at 200 ppm [4]: ≥ 80%
mortality at 12.5 ppm [6]: ≥ 80%
mortality at 24 ppm [7]: ≥ 80%
mortality at 200 ppm [8]: ≥ 80%
mortality at 200 ppm [9]: ≥ 80%

CCOC(=O)[C@H]1[C@@H]2OCCO[C@@H]21 [Compound P8, Ethyl(1α,6α,7α)-2,5-dioxabicyclo[4.1.0]heptane-7-carboxylate]
percent control (mortality, anti-feedant effect or growth inhibition) at 200 ppm [4]: ≥ 80%
percent control (mortality or growth inhibition) at 200 ppm [1]: ≥ 80%
mortality at 12.5 ppm [6]: ≥ 80%
mortality at 24 ppm [7]: ≥ 80%
mortality at 200 ppm [8]: ≥ 80%
percent effect (mortality or growth inhibition) at 200 ppm [10]: ≥ 80%
mortality at 200 ppm [9]: ≥ 80%

CN(C)C(=O)[C@H]1[C@@H]2OCCO[C@@H]21 [Compound P10, (1α,6α,7α)-N,N-dimethyl-2,5-dioxabicyclo[4.1.0]heptane-7-carboxamide]
percent control (mortality, anti-feedant effect or growth inhibition) at 200 ppm [4]: ≥ 80%

O=C(NOCc1ccccc1)[C@H]1[C@@H]2OCCO[C@@H]21 [Compound P13, (1α,6α,7α)-N-benzyloxy-2,5-dioxabicyclo[4.1.0]heptane-7-carboxamide]
mortality at 24 ppm [7]: ≥ 80%
mortality at 200 ppm [8]: ≥ 80%
mortality at 200 ppm [9]: ≥ 80%

O=C(NOCc1c(F)cccc1F)[C@H]1[C@@H]2OCCO[C@@H]21 [Compound P14, (1α,6α,7α)-N-[(2,6-difluorophenyl)methoxy]-2,5-dioxabicyclo[4.1.0]heptane-7-carboxamide]
percent control (mortality, anti-feedant effect or growth inhibition) at 200 ppm [4]: ≥ 80%
mortality at 24 ppm [7]: ≥ 80%
mortality at 200 ppm [8]: ≥ 80%

CCONC(=O)[C@H]1[C@@H]2OCCO[C@@H]21 [Compound P15, (1α,6α,7α)-N-ethoxy-2,5-dioxabicyclo[4.1.0]heptane-7-carboxamide]
percent control (mortality, anti-feedant effect or growth inhibition) at 200 ppm [4]: ≥ 80%
mortality at 12.5 ppm [6]: ≥ 80%
mortality at 24 ppm [7]: ≥ 80%
mortality at 200 ppm [8]: ≥ 80%
percent effect (mortality or growth inhibition) at 200 ppm [10]: ≥ 80%

Cc1cccc(NC(=O)[C@H]2[C@@H]3OCCO[C@@H]32)c1 [Compound P16, (1α,6α,7α)-N-(m-tolyl)-2,5-dioxabicyclo[4.1.0]heptane-7-carboxamide]
mortality at 200 ppm [8]: ≥ 80%

Cc1ccc(NC(=O)[C@H]2[C@@H]3OCCO[C@@H]32)c(F)c1 [Compound P17, (1α,6α,7α)-N-(2-fluoro-4-methyl-phenyl)-2,5-dioxabicyclo[4.1.0]heptane-7-carboxamide]
percent control (mortality or growth inhibition) at 200 ppm [1]: ≥ 80%

Cc1ccc(NC(=O)[C@H]2[C@@H]3OCCO[C@@H]32)cc1 [Compound P18, (1α,6α,7α)-N-(p-tolyl)-2,5-dioxabicyclo[4.1.0]heptane-7-carboxamide]
percent control (mortality or growth inhibition) at 200 ppm [1]: ≥ 80%
mortality at 24 ppm [7]: ≥ 80%

O=C(NCc1cc(Cl)ccc1Cl)[C@H]1[C@@H]2OCCO[C@@H]21 [Compound P19, (1α,6α,7α)-N-[(2,5-dichlorophenyl)methyl]-2,5-dioxabicyclo[4.1.0]heptane-7-carboxamide]
percent control (mortality or growth inhibition) at 200 ppm [1]: ≥ 80%

O=C(NCC1CC1)[C@H]1[C@@H]2OCCO[C@@H]21 [Compound P28, (1α,6α,7α)-N-(cyclopropylmethyl)-2,5-dioxabicyclo[4.1.0]heptane-7-carboxamide]
percent control (mortality, anti-feedant effect or growth inhibition) at 200 ppm [3]: ≥ 80%

Cc1ccccc1NC(=O)[C@H]1[C@@H]2OCCO[C@@H]21 [Compound P29, (1α,6α,7α)-N-(o-tolyl)-2,5-dioxabicyclo[4.1.0]heptane-7-carboxamide]
percent control (mortality or growth inhibition) at 200 ppm [1]: ≥ 80%
mortality at 24 ppm [7]: ≥ 80%

Cn1ccc(NC(=O)[C@H]2[C@@H]3OCCO[C@@H]32)n1 [Compound P30, (1α,6α,7α)-N-(1-methylpyrazol-3-yl)-2,5-dioxabicyclo[4.1.0]heptane-7-carboxamide]
percent control (mortality or growth inhibition) at 200 ppm [1]: ≥ 80%
mortality at 24 ppm [7]: ≥ 80%

O=C(NOC1CCC1)[C@H]1[C@@H]2OCCO[C@@H]21 [Compound P31, (1α,6α,7α)-N-(cyclobutoxy)-2,5-dioxabicyclo[4.1.0]heptane-7-carboxamide]
percent control (mortality, anti-feedant effect or growth inhibition) at 200 ppm [4]: ≥ 80%
percent control (mortality or growth inhibition) at 200 ppm [1]: ≥ 80%
mortality at 24 ppm [7]: ≥ 80%
mortality at 200 ppm [8]: ≥ 80%

O=C(Nc1cc2ccccn2n1)[C@H]1[C@@H]2OCCO[C@@H]21 [Compound P33]
percent control (mortality or growth inhibition) at 200 ppm [1]: ≥ 80%

Cn1cc(NC(=O)[C@H]2[C@@H]3OCCO[C@@H]32)cn1 [Compound P36, (1α,6α,7α)-N-(1-methylpyrazol-4-yl)-2,5-dioxabicyclo[4.1.0]heptane-7-carboxamide]
percent control (mortality or growth inhibition) at 200 ppm [1]: ≥ 80%
mortality at 24 ppm [7]: ≥ 80%
mortality at 200 ppm [8]: ≥ 80%

O=C(NC1CCOCC1)[C@H]1[C@@H]2OCCO[C@@H]21 [Compound P37, (1α,6α,7α)-N-tetrahydropyran-4-yl-2,5-dioxabicyclo[4.1.0]heptane-7-carboxamide]
mortality at 24 ppm [7]: ≥ 80%

Cn1nccc1NC(=O)[C@H]1[C@@H]2OCCO[C@@H]21 [Compound P38, (1α,6α,7α)-N-(2-methylpyrazol-3-yl)-2,5-dioxabicyclo[4.1.0]heptane-7-carboxamide]
percent control (mortality or growth inhibition) at 200 ppm [1]: ≥ 80%

CCC(NC(=O)[C@H]1[C@@H]2OCCO[C@@H]21)c1ccc(Cl)cc1 (stereo partly drawn) [Compound P40, (1α,6α,7α)-N-[1-(4-chlorophenyl)propyl]-2,5-dioxabicyclo[4.1.0]heptane-7-carboxamide]
percent control (mortality or growth inhibition) at 200 ppm [1]: ≥ 80%

O=C(NCc1ccccc1)[C@H]1[C@@H]2OCCO[C@@H]21 [Compound P41, (1α,6α,7α)-N-benzyl-2,5-dioxabicyclo[4.1.0]heptane-7-carboxamide]
percent control (mortality, anti-feedant effect or growth inhibition) at 200 ppm [4]: ≥ 80%
